Where two headings read alike, the source gives them in different places.
Tests used:
[1] = target: T1, ntd-HSP90 mutant S50C/D54C tagged with CLaNP-5 (Homo sapiens, UniProt P07900, D54C/S50C); experiment: NMR methyl 13C-1H HSQC titration fitted with TITAN, 1:1 binding model; details: mutant 50C/54C
T1 construct: Three double cysteine mutants of the ntd-HSP90 were designed on the surface of the protein; CLaNP-5 (chemical lanthanoid chelate with Lu3+ or Yb3+, attached to the two engineered Cys); made in house
Protocol: (§1) Three double cysteine mutants of the ntd-HSP90 were designed on the surface of the protein, S50C/D54C, A101C/N105C and T149C/I187C (Lescanne et al. [2017]). […] The protein was produced labelled with Leu-δ1-δ2/Val-γ1-γ2-[^13CH3] and purified and tagged with CLaNP5 according to a published protocol (Lescanne et al. [2017]). CLaNP-5 was synthesized as described before (Keizers et al. [2007], [2008]).
(§2) Ntd-HSP90 in 50 mM Tris-HCl and 50 mM NaCl buffer, pH 7.7, was titrated with 4-(2-Fluorophenyl)-2-pyrimidinamine, 1, (Fig. 1), a 189 Da known ligand of ntd-HSP90 that was kindly provided by AstraZeneca (Göteborg, Sweden). Titrations were performed with three ntd-HSP90 mutants, S50C/D54C, A101C/N105C and T149C/I187C tagged with Lu^3+-CLaNP-5 or Yb^3+-CLaNP-5. The concentrations of S50C/D54C, A101C/N105C T149C/I187C were 20, 103 and 65 µM, respectively, for both diamagnetic and paramagnetic forms of the protein. Concentrations (µM) of 1 for titrations with S50C/D54C, A101C/N105C and T149C/I187C were [0, 39, 59, 88, 132, 198, 296, 444, 667, 1000], [0, 20, 40, 121, 364, 1111] and [0, 40, 89, 200, 442, 665, 1008, 1897], respectively. The NMR sample volume was 595 µL for all samples, and dilution was neglected, because the biggest volume of ligand solution added was < 5 µL. ^13C-^1H HSQC (Palmer et al. [1991]; Kay et al. [1992]; Schleucher et al. [1994]) spectra were acquired at each titration point, on a Bruker Avance III 800 MHz spectrometer, equipped with a cryogenically cooled TXI-probe head, operating at 298 K. Spectra were processed with nmrpipe (Delaglio et al. [1995]) using the exponential EM apodization function for analysis with TITAN (Waudby et al. [2016]). A similar titration was performed with WT ntd-HSP90 observing the amide groups. Average CSP were calculated as (ΔH^2 + (ΔC/10)^2)^0.5 for methyl groups and (ΔH^2 + (ΔN/6)^2)^0.5 for amides. PCS were measured using ^1H and for calculations the geometrical average of the proton coordinates in methyl groups were used.
(§3) The dissociation constant KD, as well as the dissociation rate constant (kOFF) were calculated with TITAN software (Waudby et al. [2016]) using a 1:1 binding model (A + B ⇆ A − B). TITAN fits both the equilibrium constant (KD) and the dissociation rate constant (kOFF) on the basis of the CSP and line broadening. A global fit of the resonances of five methyl groups (Table S1) was performed and then one at the time was taken out and the fit repeated. The WT KD was calculated using a titration performed on the ^15N labelled protein, on the basis of four amide protons (Table S1). The ranges of values obtained in this way are reported in Table 1 and provide a more realistic error range than the fit error. […] For these two mutants, a 50 µM variation of the KD results in a change of the extrapolated CSP of 0.01 ppm at most, half the error used for the further calculations. For mutant 149C/187C a KD of 50 µM was used to extrapolate the CSP.

[2] = target: T2, ntd-HSP90 mutant T149C/I187C tagged with CLaNP-5 (Homo sapiens, UniProt P07900, I187C/T149C); experiment: as above; details: mutant 149C/187C
T2 construct: Three double cysteine mutants of the ntd-HSP90 were designed on the surface of the protein; CLaNP-5 (chemical lanthanoid chelate with Lu3+ or Yb3+, attached to the two engineered Cys); made in house
Protocol: as §1, §2, §3

[3] = target: T3, ntd-HSP90 mutant A101C/N105C tagged with CLaNP-5 (Homo sapiens, UniProt P07900, A101C/N105C); experiment: as above; details: mutant 101C/105C
T3 construct: Three double cysteine mutants of the ntd-HSP90 were designed on the surface of the protein; CLaNP-5 (chemical lanthanoid chelate with Lu3+ or Yb3+, attached to the two engineered Cys); made in house
Protocol: as §1, §2, §3

WT ntd-HSP90 = target: T4, WT ntd-HSP90 (Homo sapiens, UniProt P07900); experiment: NMR titration (15N-labelled protein, amide groups) fitted with TITAN, 1:1 binding model; details: four amide protons, range of values from repeated global fits, 298 K, pH 7.7
T4 construct: made in house
Protocol: Ntd-HSP90 in 50 mM Tris-HCl and 50 mM NaCl buffer, pH 7.7, was titrated with 4-(2-Fluorophenyl)-2-pyrimidinamine, 1, (Fig. 1), a 189 Da known ligand of ntd-HSP90 that was kindly provided by AstraZeneca (Göteborg, Sweden). Titrations were performed with three ntd-HSP90 mutants, S50C/D54C, A101C/N105C and T149C/I187C tagged with Lu^3+-CLaNP-5 or Yb^3+-CLaNP-5. The concentrations of S50C/D54C, A101C/N105C T149C/I187C were 20, 103 and 65 µM, respectively, for both diamagnetic and paramagnetic forms of the protein. Concentrations (µM) of 1 for titrations with S50C/D54C, A101C/N105C and T149C/I187C were [0, 39, 59, 88, 132, 198, 296, 444, 667, 1000], [0, 20, 40, 121, 364, 1111] and [0, 40, 89, 200, 442, 665, 1008, 1897], respectively. […] Average CSP were calculated as (ΔH^2 + (ΔC/10)^2)^0.5 for methyl groups and (ΔH^2 + (ΔN/6)^2)^0.5 for amides. PCS were measured using ^1H and for calculations the geometrical average of the proton coordinates in methyl groups were used.
The dissociation constant KD, as well as the dissociation rate constant (kOFF) were calculated with TITAN software (Waudby et al. [2016]) using a 1:1 binding model (A + B ⇆ A − B). […] The WT KD was calculated using a titration performed on the ^15N labelled protein, on the basis of four amide protons (Table S1). […]

[4] = CLaNP-5 tagged, five methyl groups, range of values from repeated global fits, 298 K, pH 7.7
[5] = CLaNP-5 tagged, five methyl groups, range of values from repeated global fits, 298 K, pH 7.7, read-out: KD
[6] = single value used to extrapolate CSP, read-out: KD used for the calculation of the 100% bound state CSP

koff [1, 4]: 1500 to 2300 s⁻¹ | Kd [1, 5]: 195 to 238 µM | Kd [1, 6]: 200 µM | koff [2, 4]: 1300 to 1900 s⁻¹ | Kd [2, 5]: 41 to 45 µM | Kd ([2]; single value used to extrapolate CSP, read-out: KD used to extrapolate the CSP): 50 µM | koff [3, 4]: 1080 to 1300 s⁻¹ | Kd [3, 5]: 140 to 171 µM | Kd [3, 6]: 150 µM | Kd (WT ntd-HSP90): 160 to 220 µM | koff (WT ntd-HSP90): 1400 to 1800 s⁻¹
SMILES: Nc1nccc(-c2ccccc2F)n1 [compound 1, 4-(2-Fluorophenyl)-2-pyrimidinamine]
